Source: patent US6706509B2, “Oncoprotein protein kinase” (The Regents of the University of California, priority 1993, dated 2004)

Tested on: N-terminal c-Jun kinase (JNK)
Assay: Solid-phase kinase assay of N-terminal c-Jun kinase activity in HeLa cell extracts
Format: cell-based, human
Settings: HeLa S3 cells, TPA 100 ng/ml
Procedure: Cell extracts were diluted so that the final composition of the WCE buffer was 20 mM HEPES pH 7.7, 75 mM NaCl, 2.5 mM MgCl2, 0.1 mM EDTA, 0.05% Triton X-100, 0.5 mM DTT, 20 mM β-glycerolphosphate, 0.1 mM Na3VO4, 2 μg/ml leupeptin, 100 μg/ml PMSF. The extracts were mixed with 10 μl of GSH-agarose suspension (Sigma) to which 10 μg of either GST or GST-Jun fusion proteins were bound. The mixture was rotated at 4° C. for 3 hours in a microfuge tube and pelleted by centrifugation at 10,000×g for 20 sec. After 4×1 ml washes in HEPES binding buffer (20 mM HEPES pH 7.7, 50 mM NaCl, 2.5 mM MgCl2, 0.1 mM EDTA, 0.05% Triton X-100), the pelleted beads were resuspended in 30 μl of kinase buffer (20 mM HEPES pH 7.6, 20 mM MgCl2, 20 mM β-glycerolphosphate, […] p-nitrophenyl phosphate, 0.1 mM Na3VO4, 2 mM DTT) containing 20 μM ATP and 5 μCi γ-^32P-ATP. After 20 minutes at 30° C. the reaction was terminated by washing with HEPES binding buffer. Phosphorylated proteins were eluted with 30 μl of 1.5×Laemlli sample buffer and resolved on a 10% SDS polyacrylamide gel, followed by autoradiography. Quantitation of phosphate incorporated was determined by gel slicing and scintillation counting. Phosphorylated GST fusion proteins were eluted from gel slices and subjected to phosphopeptide mapping as described (Boyle, et al., supra, 1991). […]

CCCCCCCCCCCCCC(=O)O[C@@H]1[C@@H](C)[C@@]2(O)[C@@H](C=C(CO)C[C@]3(O)C(=O)C(C)=C[C@@H]23)[C@H]2C(C)(C)[C@]12OC(C)=O [TPA]
N-terminal c-Jun kinase activity, effect of treatment: minor compared to that of UV
